Where two headings read alike, the source gives them in different places.
Legend:
[1] = tested on: MCF-7 cells; experiment: MTT antiproliferative assay, MCF-7; type: cell-based, human; settings: for inhibition at 100 µM / IC50: Homo sapiens, MCF7, 48 h; for inhibition at 100 µM: read-out: Growth Inhibition at 100 μM (%) MCF-7; for IC50: read-out: IC50 MCF-7
Description: (§1) The antiproliferative activity of the target compounds against the panel of three different human cancer cell lines, liver (BEL-7402), colorectal (HCT-116), and breast (MCF-7) cell lines was evaluated using a standard MTT-based colorimetric assay. All cell lines were obtained from the Key Laboratory of Natural Resources and Functional Molecules of the Changbai Mountain (Yanbian University) and maintained in Dulbecco’s modified Eagle’s medium (DMEM) and RPMI Media 1640 (RPMI1640), supplemented with 10% foetal bovine serum (FBS) at 37 °C in a humidified atmosphere containing 5% CO2.
(§2) The cells were plated in 96-well plates at appropriate densities to ensure exponential growth throughout the experimental period (9 × 10^3 cells per well) and then allowed to adhere for 24 h. the cells were then treated for 48 h with each compound. After 48 h of incubation, 10 μL of MTT solution was added to each well to a final concentration of 2 mg/mL. the plates were then incubated for a further 4 h. After incubation, the MTT solution was removed and 150 μL of DMSO was added to each well for coloration. The plates were shaken vigorously for 10 min at room temperature to ensure complete solubilisation. The optometric density (OD) was read on a microplate reader (EL × 800, BioTek, Highland Park, Winooski, VT, USA) at 492 nm, and the data were subsequently analysed. The percentage of cell growth inhibition was calculated from the following Equation:
(§3) Inhibitory rate (%) = [1 − (ODtreated − ODblank)/(ODcontrol − ODblank)] × 100%
(§4) To obtain the antiproliferative activity of compounds 3a-3s and 4a-4d, the compounds were selected in the same way with four serial concentrations (1, 10, 50 and 100 μM) of those compounds. The optometric density (OD) reading was then used to calculate the IC50.

[2] = tested on: BEL-7402 cells; experiment: MTT antiproliferative assay, BEL-7402; type: cell-based, human; settings: for inhibition at 100 µM / IC50: Homo sapiens; for inhibition at 100 µM: read-out: Growth Inhibition at 100 μM (%) BEL-7402; for IC50: read-out: IC50 BEL-7402; for Selectivity index BEL-7402: IC50 on normal cells (L02)/IC50 on tumor cells (BEL-7402)
Description: as §1, §2, §3, §4

[3] = tested on: HCT-116 cells; experiment: MTT antiproliferative assay, HCT-116; type: cell-based, human; settings: for inhibition at 100 µM / IC50: Homo sapiens; for inhibition at 100 µM: read-out: Growth Inhibition at 100 μM (%) HCT-116; for IC50: read-out: IC50 HCT-116
Description: as §1, §2, §3, §4

[4] = tested on: L02 cells; experiment: Antiproliferative activity against normal cell line L02; type: cell-based; settings: Homo sapiens, L02, read-out: L02 IC50
Description: The lack of selective cytotoxicity is the main factor that restricts the dose of most conventional chemotherapeutic agents ([21]). […] Selectivity indexes between cancer cells and L02 cells were calculated.

Structure (SMILES) | inhibition at 100 µM [1] [%] | inhibition at 100 µM ([2]; Bel-7402, 48 h) [%] | inhibition at 100 µM ([3]; HCT-116, 48 h) [%] | IC50 [1] [µM] | IC50 ([2]; Bel-7402, 48 h) [µM] | IC50 ([3]; HCT-116, 48 h) [µM] | melting point [°C] | IC50 [4] [µM] | Selectivity index BEL-7402 [2] | Selectivity index MCF-7 ([1]; IC50 on normal cells (L02)/IC50 on tumor cells (MCF-7)) | Selectivity index HCT-116 ([3]; IC50 on normal cells (L02)/IC50 on tumor cells (HCT-116)) | IC50 ([2]; Bel-7402, 48 h, MTT) [µM] | IC50 ([3]; HCT-116, 48 h, MTT) [µM]
O=C1NC(=O)C(=Cc2cn(Cc3ccccc3)c3ccccc23)C(=O)N1 [A, 5-((1-benzyl-1H-indol-3-yl)methylene)pyrimidine-2,4,6 (1H,3H,5H)-trione, reference compound] | 11.8 ± 1 | 19.6 ± 2.1 | 26.2 ± 1.8 |  |  |  |  |  |  |  |  |  | 
O=C1CC(=O)NC(=O)N1 [Barbituric acid] | < 5 | 11.7 ± 1 | 14.3 ± 2.2 | > 100 | > 100 | > 100 |  |  |  |  |  |  | 
O=C1NC(=O)C(=Cc2cn(-c3ccccc3)nn2)C(=O)N1 [Compound 3a, 5((1-phenyl-1H-1,2,3-triazol-4-yl)methylene)pyrimidine-2,4,6(1H,3H,5H)-trione] | 30.9 ± 2.6 | 54 ± 3.4 | 42.7 ± 2.5 |  |  |  | 250 |  |  |  |  |  | 
O=C1NC(=O)C(=Cc2cn(-c3ccccc3F)nn2)C(=O)N1 [Compound 3b, 5-((1-(2-fluorophenyl)-1H-1,2,3-triazol-4-yl)methylene)pyrimidine-2,4,6(1H,3H,5H)-trione] | 27.5 ± 1.6 | 34.1 ± 4.3 | 67.6 ± 3.8 | > 100 | > 100 | 78.2 ± 2.34 | 250 |  |  |  |  |  | 
O=C1NC(=O)C(=Cc2cn(-c3cccc(F)c3)nn2)C(=O)N1 [Compound 3c, 5-((1-(3-fluorophenyl)-1H-1,2,3-triazol-4-yl)methylene)pyrimidine-2,4,6(1H,3H,5H)-trione] | 34.6 ± 1.8 | 79 ± 3.9 | 48.4 ± 2.3 | > 100 | 12.2 ± 0.91 | > 100 | 250 | 82.3 ± 4 | 6.74 |  |  |  | 
O=C1NC(=O)C(=Cc2cn(-c3ccc(F)cc3)nn2)C(=O)N1 [Compound 3d, 5-((1-(4-fluorophenyl)-1H-1,2,3-triazol-4-yl)methylene)pyrimidine-2,4,6(1H,3H,5H)-trione] | 34.1 ± 2.3 | 31.9 ± 2.8 | 31.6 ± 1.9 |  |  |  | 250 |  |  |  |  |  | 
O=C1NC(=O)C(=Cc2cn(-c3ccccc3Cl)nn2)C(=O)N1 [Compound 3e, 5-((1-(2-chlorophenyl)-1H-1,2,3-triazol-4-yl)methylene)pyrimidine-2,4,6(1H,3H,5H)-trione] | 19.8 ± 1.5 | 39.6 ± 4.1 | 14.8 ± 0.9 |  |  |  | 250 |  |  |  |  |  | 
O=C1NC(=O)C(=Cc2cn(-c3cccc(Cl)c3)nn2)C(=O)N1 [Compound 3f, 5-((1-(3-chlorophenyl)-1H-1,2,3-triazol-4-yl)methylene)pyrimidine-2,4,6(1H,3H,5H)-trione] | 58 ± 3.2 | 75.2 ± 3 | 79.3 ± 5.6 | 29.1 ± 0.34 | 15.9 ± 1.32 | 14.9 ± 0.55 | 250 | 93.9 ± 5.9 | 5.89 | 3.22 | 6.28 |  | 
O=C1NC(=O)C(=Cc2cn(-c3ccc(Cl)c(Cl)c3)nn2)C(=O)N1 [Compound 3i, 5-((1-(3,4-dichlorophenyl)-1H-1,2,3-triazol-4-yl)methylene)pyrimidine-2,4,6(1H,3H,5H)-trione] | 14.2 ± 1.5 | 47.2 ± 4.7 | 69.3 ± 2.9 | > 100 | > 100 | 55.2 ± 2.31 | 250 |  |  |  |  |  | 
O=C1NC(=O)C(=Cc2cn(-c3ccccc3Br)nn2)C(=O)N1 [Compound 3j, 5-((1-(2-bromophenyl)-1H-1,2,3-triazol-4-yl)methylene)pyrimidine-2,4,6(1H,3H,5H)-trione] | 42.7 ± 2.6 | 36.8 ± 2.1 | 46.3 ± 3.4 |  |  |  | 250 |  |  |  |  |  | 
O=C1NC(=O)C(=Cc2cn(-c3ccc(Br)cc3)nn2)C(=O)N1 [Compound 3l, 5-((1-(4-bromophenyl)-1H-1,2,3-triazol-4-yl)methylene)pyrimidine-2,4,6(1H,3H,5H)-trione] | < 5 | 44.8 ± 3.8 | 49.8 ± 3.8 |  |  |  | 250 |  |  |  |  |  | 
COc1ccccc1-n1cc(C=C2C(=O)NC(=O)NC2=O)nn1 [Compound 3m, 5-((1-(2-methoxyphenyl)-1H-1,2,3-triazol-4-yl)methylene)pyrimidine-2,4,6(1H,3H,5H)-trione] | 7.9 ± 1.1 | 25.6 ± 2.1 | 44.2 ± 3.4 |  |  |  | 250 |  |  |  |  |  | 
COc1cccc(-n2cc(C=C3C(=O)NC(=O)NC3=O)nn2)c1 [Compound 3n, 5-((1-(3-methoxyphenyl)-1H-1,2,3-triazol-4-yl)methylene)pyrimidine-2,4,6(1H,3H,5H)-trione] | 23.3 ± 3.5 | 36.7 ± 19 | 67.1 ± 5.6 | > 100 | > 100 | 30.7 ± 2.1 | 250 |  |  |  |  |  | 
COc1ccc(-n2cc(C=C3C(=O)NC(=O)NC3=O)nn2)cc1 [Compound 3o, 5-((1-(4-methoxyphenyl)-1H-1,2,3-triazol-4-yl)methylene)pyrimidine-2,4,6(1H,3H,5H)-trione] | 22.6 ± 2.7 | 28.4 ± 3.1 | 7.9 ± 0.6 |  |  |  | 250 |  |  |  |  |  | 
COc1ccc(-n2cc(C=C3C(=O)NC(=O)NC3=O)nn2)cc1OC [Compound 3p, 5-((1-(3,4-dimethoxyphenyl)-1H-1,2,3-triazol-4-yl)methylene)pyrimidine-2,4,6(1H,3H,5H)-trione] | 18.6 ± 1.7 | 38 ± 1.9 | 43.9 ± 2.9 |  |  |  | 250 |  |  |  |  |  | 
Cc1cccc(-n2cc(C=C3C(=O)NC(=O)NC3=O)nn2)c1 [Compound 3q, 5-((1-m-tolyl-1H-1,2,3-triazol-4-yl)methylene)pyrimidine-2,4,6(1H,3H,5H)-trione] | 91.9 ± 2.4 | 23.7 ± 2.1 | 94.8 ± 6.3 | 29.8 ± 2.01 | > 100 | 32.8 ± 1.9 | 250 |  |  |  |  |  | 
Cc1ccc(-n2cc(C=C3C(=O)NC(=O)NC3=O)nn2)cc1 [Compound 3r, 5-((1-p-tolyl-1H-1,2,3-triazol-4-yl)methylene)pyrimidine-2,4,6(1H,3H,5H)-trione] | < 5 | 39.8 ± 3.1 | 52.5 ± 2 |  |  |  | 250 |  |  |  |  |  | 
Cc1nn(-c2ccccc2)c(C)c1C=C1C(=O)NC(=O)NC1=O [Compound 4a, 5-((3,5-dimethyl-1-phenyl-1H-pyrazol-4-yl)methylene)pyrimidine-2,4,6(1H,3H,5H)-trione] | < 5 | 38.7 ± 1 | 30.9 ± 3.1 |  |  |  | 250 |  |  |  |  |  | 
Cc1nn(-c2cccc(F)c2)c(C)c1C=C1C(=O)NC(=O)NC1=O [Compound 4b, 5-((1-(3-fluorophenyl)-3,5-dimethyl-1H-pyrazol-4-yl)methylene)pyrimidine-2,4,6(1H,3H,5H)-trione] | < 5 | 14.7 ± 1.2 | 9.1 ± 1.2 |  |  |  | 250 |  |  |  |  |  | 
Cc1nn(-c2cccc(Cl)c2)c(C)c1C=C1C(=O)NC(=O)NC1=O [Compound 4c, 5-((1-(3-chlorophenyl)-3,5-dimethyl-1H-pyrazol-4-yl)methylene)pyrimidine-2,4,6(1H,3H,5H)-trione] | 15.5 ± 1.1 | 64 ± 2.1 | 58.7 ± 5.2 | > 100 | 48.2 ± 0.78 | 47.5 ± 3.21 | 250 |  |  |  |  |  | 
Cc1ccc(-n2nc(C)c(C=C3C(=O)NC(=O)NC3=O)c2C)cc1 [Compound 4d, 5-((3,5-dimethyl-1-p-tolyl-1H-pyrazol-4-yl)methylene)pyrimidine-2,4,6(1H,3H,5H)-trione] | < 5 | 38.1 ± 1.3 | 28.4 ± 3 |  |  |  | 250 |  |  |  |  |  | 
O=c1[nH]cc(F)c(=O)[nH]1 [Compound 5-FU, 5-fluorouracil, reference compound] |  |  |  |  |  |  |  |  |  |  |  | 21.3 ± 0.56 | 24.8 ± 0.78

— paper PMC8457749, “Design, Synthesis, and Anticancer Activity Evaluation of Hybrids of Azoles and Barbituric Acids” (Iranian Journal of Pharmaceutical Research : IJPR, 2021)
